Data reported in patent US9278991B2, “Anhydrous polymorphs of [(2R,3S,4R,5R)-5-(6-(cyclopentylamino)-9H-purin-9-yl)-3,4-dihydroxytetrahydrofuran-2-yl)} methyl nitrate and processes of preparation thereof” (Inotek Pharmaceuticals Corporation, priority 2012, dated 2016).
Values belong to the molecule of their own block, whether it stands above or below them.

Columns and labels:
Type in all cases: physicochemical
[1] = Curing (ripening) of Compound A aqueous suspension at 40 degrees C: conversion of form A1 to A2, followed by particle size, XRPD and microphotography
Description: XRPD patterns were obtained using a high-throughput XRPD set-up. The plates were mounted on a Bruker GADDS diffractometer equipped with a Hi-Star area detector. The XRPD platform was calibrated using Silver Behenate for the long d-spacings and Corundum for the short d-spacings.
Data collection was carried out at room temperature using monochromatic CuKα radiation in the 2-theta region between 1.5 degrees and 41.5 degrees, which is the most distinctive part of the XRPD pattern between the polymorph forms. The diffraction pattern of each well was collected in 2 theta ranges (1.5 degrees≦2 theta≦21.5 degrees for the first frame, and 19.5 degrees≦2 theta≦41.5 degrees for the second) with an exposure time of 30 seconds for each frame. No background subtraction or curve smoothing was applied to the XRPD patterns. The carrier material used during XRPD analysis was transparent to X-rays and contributed only slightly to the background.
As described above the Form A1 can be obtained predominantly via recrystallization from ethanol or under slow evaporation conditions. It has also been established that ripening or curing of Compound A particles suspended in an aqueous suspension formulated for ocular delivery at 40 degrees C. for a relatively short period of time formed polymorph form A2 from polymorph form A1. The aqueous suspension samples were kept at 40 degrees C. for up to 108 hours and monitored by particle size measurement, XRPD and microphotography. […] XRPD analyses indicated a change in polymorph content from about 74% A1 to 26% A2 at time zero to 0% A1 to 100% A2 at 108 hours at 40 degrees C. […] Also, habit changes coupled with A2 growth were reflected in the XRPD patterns and could be monitored by a difference in selected peak intensities from planes within the crystal lattice perpendicular to the c axis that change in intensity as the habit of the crystal changes.
(§1) The particle size analyses were performed on a Cilas 1180 Particle Size Analyzer. The parameters used were liquid mode, sample refractive index=1.62 (determined using Cargille immersion oils), liquid refractive index=1.333 (value for water), 30 second measurement, 180 rpm stifling, 120 rpm pump circulation, no sonication, 5 repeat measurements.

[2] = Storage of aqueous suspension ocular formulation containing Compound A in the A1 polymorph at 2-8° C
Description: When the aqueous suspension ocular formulation containing Compound A in the A1 polymorph is stored at 2-8° C., a temperature required to limit decomposition of Compound A over long term storage, the habit of the suspended particles changes slowly over a period of 6 to 12 months. During this time the small irregular particles of suspended drug change to rod-like habits, with many particles having a length along the longest dimension over 100 microns.

[3] = Long term stability and particle size growth of cured (A2) aqueous formulation lots at 5 and 25 degrees Celsius; conditions: aqueous suspension, 6 month period at either 5° C. or 25° C.
Description: as §1
A batch of sterile material of Compound A was prepared as described above under the “Synthesis of Compound A”. The resulting Compound A material was then sterilized with gamma irradiation at up to 40 kGray and then formulated into the following aqueous formulations: […]
Various concentrations of Compound A formulation lots were prepared from 0.152, 0.30, 0.61, 0.91, 2.42, 0.46, 0.76%, W/V to provide for the ability to deliver different levels of Compound A per drop of formulation. For example one drop of the 0.152%, W/V of compound A would deliver 50 mcg per drop, 0.30%, W/V would deliver 100 mcg per drop, right through to 0.76% W/V delivering 250 mcg per drop. The formulation lots were then heated to undergo the curing step and convert the A1 polymorph form of Compound A to the A2 polymorph form of Compound A. The curing step was undertaken by placing the formulation lots at 40 degrees C. for 48 hours and then reverting the formulations lots to the desired longer term storage conditions for stability studies. […]

average particle size change ([1]; 40 degrees C, after 15 hours to 108 hours): remained effectively constant | time over which XRPD peak intensity differences (crystal habit) changed ([1]; 40 degrees C, constant thereafter): up to 9 hours | average particle size change ([1]; 40 degrees C, over 15 hours): increased significantly | polymorph content A1 (XRPD) ([1]; 108 hours at 40 degrees C): 0% | polymorph content A2 (XRPD) ([1]; 108 hours at 40 degrees C): 100% | polymorph content A1 (XRPD) ([1]; time zero): about 74% | polymorph content A2 (XRPD) ([1]; time zero): ~26%
Structure (SMILES): O=[N+]([O-])OC[C@H]1O[C@@H](n2cnc3c(NC4CCCC4)ncnc32)[C@H](O)[C@@H]1O [Compound A, [2R,3S,4R,5R)-5-(6-(cyclopentylamino)-9H-purin-9-yl)-3,4-dihydroxytetrahydrofuran-2-yl)] methyl nitrate]

resuspendability by sonication and shaking ([2]; aqueous suspension after habit change at 2-8° C): much more difficult to resuspend | particle length along the longest dimension (many particles) ([2]; aqueous suspension stored at 2-8° C, 6 to 12 months): over 100 microns
Structure (SMILES): O=[N+]([O-])OC[C@H]1O[C@@H](n2cnc3c(NC4CCCC4)ncnc32)[C@H](O)[C@@H]1O [Form A1]

changes to particle habit, size or polymorph content on storage [3]: limit any further changes
Structure (SMILES): O=[N+]([O-])OC[C@H]1O[C@@H](n2cnc3c(NC4CCCC4)ncnc32)[C@H](O)[C@@H]1O [Form A2]
